pKi: −log10 of the molar value. Values joined by “and” are separate entries in the source; they are usually repeats but may differ in a detail not shown here. Equal entries are not always repeated.
What was measured:
[1] = PET imaging of brain in wild-type rats; assay type: in vivo, rat; details: i.v.
Method: (§1) All PET imaging studies were performed with a Mediso LFER 150 preclinical scanner (nanoScan PET/CT). Brain and brain region radioactivity uptake was expressed by standardized uptake value (SUV) which normalizes for injected radioactivity and monkey body weight, as follows: SUV = [(% injected dose per g tissue) × body weight in g]/100.
Animals were maintained under anesthesia with 1.5% isoflurane throughout the scan. Radioligand was injected intravenously via a penile vein catheter followed by PET imaging for 90 min. Brain uptake was expressed as standardized uptake value (SUV, concentration normalized by injected activity and body weight) and compared between the wild-type and self-blocked conditions.

[2] = PET imaging and arterial plasma radiometabolite analysis in non-transduced healthy monkey; assay type: in vivo, rhesus monkey
Method: as §1
Two male rhesus monkeys (macaca mulatta; 10.0 and 8.6 kg) underwent PET scanning. Each monkey was initially immobilized with ketamine (10 mg/kg, i.m.) and then maintained under anesthesia with 1.5% isoflurane. For each monkey, a baseline scan was performed for 120 min. […] Electrocardiogram, body temperature, heart, and respiration rates were monitored throughout the scans.
Total radioactivity concentrations in sampled arterial whole blood and plasma were measured in a γ-counter throughout the 90-min scanning period.
PET images were reconstructed using Fourier rebinding plus two-dimensional filtered back-projection with attenuation and scatter correction. Images were co-registered to a standardized monkey MRI template using the FMRIB Software Library (FSL; Oxford, UK). Thirty-four predefined brain regions of interest from the template were applied to the co-registered PET image to obtain regional, decay-corrected, time-activity curves.

[3] = Lipophilicity measurement (logD7.4) by partition; assay type: physicochemical; details: n = 6
Method: Aliquots were distributed to 16 borosilicate disposable culture tubes (13 × 100 mm). The tubes were divided into two groups of […]. […] Extraction was performed by vortexing the tubes with their content for 1 min. The tubes were then centrifuged for 1 min. The organic and the aqueous phases were separated, and each phase was then sampled (50 µL) and counted separately in a well-type γ-counter (model 1480 Wizard; Perkin-Elmer) with an electronic window set between 360 and 1800 keV. The remaining two tubes, containing the radioactivity in buffer, served as stability measures for the radioligand. […] The aqueous phases were injected onto the HPLC. The resulting radiochromatograms provided correction factors for the γ-counter counts, of the aqueous samples, to determine parent radioligand radioactivity only (corrected radioactivity)[32]. LogD7.4octanol and logD7.4cyclohexane were each calculated as log((cpm in organic phase)/(corrected cpm in aqueous phase)).

[4] = Ex vivo measurements of radioactivity in rat brain and blood 100 min after i.v. injection
Method: Other experimental parameters that governed this study are listed in Supporting Information, Table S1. […] The rats were sacrificed via thoracotomy 100 min after radioligand injection. Anticoagulated blood was drawn from the myocardium followed by decapitation and harvesting of the brain. Each brain was removed, weighed, and immediately subjected to radio analysis after counting its concomitant radioactivity. Whole blood samples were removed and centrifuged to separate the plasma. Whole blood (300 µL each) and plasma samples (300 µL each) were also quantified for radioactivity in an automatic γ-counter (model 2480 Wizard 2; Perkin-Elmer) with an electronic window set at 360–1800 keV (counting efficiency, 51.84%). Briefly, plasma samples (~ 450 µL) were deproteinated with acetonitrile treatment (720 µL). The radioactivity of various plasma and brain tissues were counted in the γ-counter. Brain tissues were then homogenized in acetonitrile (1.0 mL) using a handheld tissue Tearor (model 985-370; BioSpec Products Inc; Bartlesville, OK), followed by a second homogenization in water (1.0 mL). The homogenates were counted in the γ-counter to calculate the percentage recovery of radioactivity in the acetonitrile extracts. Corrections of all tissue assays for physical decay were made with a half-life of 20.385 min. The homogenates were then centrifuged at 10,000g for 2 min. The clear supernatants were injected onto the HPLC column through nylon filters. For each sample, radioactivity in the resulting precipitate was used to calculate the percent recovery of activity into the acetonitrile supernatant.

[5] = system: efflux transporters (P-gp and BCRP); test: PET imaging in wild-type and dual efflux transporter knockout mice; assay type: in vivo, mouse
Method: as §1
Radioligand was injected intravenously via a tail vein catheter followed by PET imaging for 90 min. Whole brain uptake in SUV was compared between wild type and knockout mice.

[6] = Plasma free fraction by ultrafiltration, pooled human standard plasma; assay type: in vitro ADME
Method: (§2) In vitro stability was calculated by dividing the relative composition of the blood or brain homogenate determined with radio-HPLC by the initial radiochemical purity of the radioligand. […] The mixture was incubated at room temperature for 10 min and then processed exactly as described previously. The ultrafiltration components that contained high radioactivity were allowed time for radioactivity decay to within the optimal range of the γ-counter before they were counted again.

[7] = Plasma free fraction by ultrafiltration, rat plasma; assay type: in vitro ADME; details: fresh rat plasma, read-out: rat plasma free fraction (fP)
Method: as §2

[8] = Plasma free fraction, monkey plasma; assay type: in vitro ADME, rhesus monkey; details: baseline
Method: as §2

PSAM^4-GlyR = PSAM^4-GlyR (Homo sapiens, UniProt P23415+P36544, L131G/Q139L/Y217F); parameters: expressed in transfected cells; method as in PMID 30872534, PMID 24556591, PMID 36279419; details: read-out: PSAM^4-GlyR (Ki); in vitro binding assay, literature; cited from earlier work
Sequence of PSAM^4-GlyR (P36544+P23415 fused P36544:L131G/P36544:Q139L/P36544:Y217F): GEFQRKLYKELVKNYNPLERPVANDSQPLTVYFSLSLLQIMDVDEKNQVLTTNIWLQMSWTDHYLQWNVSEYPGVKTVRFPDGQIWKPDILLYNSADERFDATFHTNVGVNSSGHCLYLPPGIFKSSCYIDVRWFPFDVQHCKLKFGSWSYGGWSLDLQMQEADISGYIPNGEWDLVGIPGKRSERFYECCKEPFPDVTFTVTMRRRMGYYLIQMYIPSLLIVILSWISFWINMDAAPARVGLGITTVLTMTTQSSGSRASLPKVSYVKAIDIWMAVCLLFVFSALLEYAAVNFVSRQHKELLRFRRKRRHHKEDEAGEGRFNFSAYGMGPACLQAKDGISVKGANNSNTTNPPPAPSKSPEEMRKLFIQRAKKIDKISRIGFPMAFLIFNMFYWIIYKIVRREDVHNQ

[9] = non-transduced healthy monkey, i.v., PET
[10] = Rat-3, blocked with uPSEM792, 100 min
[11] = Rat-3, blocked with uPSEM792 i.v. 15 min before radioligand, 100 min
[12] = baseline rats (Rat-1, Rat-2), 100 min
[13] = baseline rats (Rat-1, Rat-2), 100 min after injection
[14] = rat, ex vivo, 100 min after i.v. injection, HPLC

In the case of `[11CH3]n1c(=O)cnc2cc3c(cc21)C1CNCC3C1` (stereo not shown) [[^11C]uPSEM792], the “peak whole brain radioactivity uptake” value [1] was ~ 0.6 SUV and < 0.6 SUV, the “time of peak whole brain radioactivity” value [1] was 5 min and the “time at which radiometabolites represented half of the radioactivity in plasma” value ([2]; male, rhesus monkey, in vivo) was 78 min. The “unchanged radioligand peak in plasma radiochromatogram” value ([2]; male, rhesus monkey, in vivo, 120 min) was 29%, the “peak of whole brain time-activity curve” value [2, 9] was 0.8 SUV and ~ 0.8 SUV and the “plateau of whole brain time-activity curve” value [2, 9] was “about 0.65 SUV”. For the same molecule, the “ΔLogD7.4 (logD7.4(octanol) − logD7.4(cyclohexane))” value [3] was 2.45 ± 0.03, the “Ex vivo brain” value [4, 10] was 0.72 nM and the “Ex vivo brain (SUV)” value [4, 10] was 0.401 SUV. For the same molecule, the “Ex vivo plasma parent (SUV)” value [4, 10] was 0.064 SUV, the “Ex vivo whole blood (SUV)” value [4, 10] was 0.163 SUV and the “HPLC Composition (%), ex vivo brain” value [4, 11] was 68.3%. The “HPLC Composition (%), ex vivo plasma” value [4, 11] was 37.1%, the “Ex vivo brain” value [4, 12] was 0.68 nM and 0.83 nM and the “Ex vivo brain (SUV)” value [4, 12] was 0.407 SUV and 0.468 SUV. The “Ex vivo plasma parent (SUV)” value [4, 12] was 0.063 SUV and 0.064 SUV, the “Ex vivo whole blood (SUV)” value [4, 12] was 0.141 SUV and 0.163 SUV and the “HPLC Composition (%), ex vivo brain” value [4, 13] was 78.3% and 75.6%. The “HPLC Composition (%), ex vivo plasma” value [4, 13] was 43.0% and 37.9%, the “total radioactivity concentration in rat brain” value ([4]; ex vivo, 100 min after i.v. injection) was ~ 0.4 SUV and the Kp at 100 min ([4]; male, brain and plasma, intravenous, rat, 100 min, read-out: fold lower concentration of unchanged radioligand in plasma than in brain) was 6.7. The “concentration of unchanged radioligand in plasma” value ([4]; rat, 100 min, n = 3) was 0.064 ± 0.001 SUV, the “unchanged radioligand as share of radioactivity in brain” value [4, 14] was 75.6% and the “unchanged radioligand fraction of all radioactivity in plasma” value [4, 14] was 37.9%. The “substrate for efflux transporters in vivo” value ([5]; dual P-gp and BCRP knockout vs wild-type mice) was “substrate for efflux transporters in vivo”, the “early peak brain radioactivity uptake” value ([5]; dual efflux transporter (P-gp and BCRP) knockout mice, i.v.) was ~ 0.7 SUV and the fraction unbound at 10 min, 2.6 MBq/mL [6] was 0.876. For the same molecule, the fraction unbound at 10 min, 2.6 MBq/mL [7] was 0.898, the “fP (%)” value ([8]; PSAM^4-GlyR monkey) was 89.42% and the “fP (%)” value ([8]; non-transduced healthy monkey) was 89.29%. For the same molecule, the pKi (PSAM^4-GlyR) was 9.15.

Reference: paper PMC10803328 (Scientific Reports, 2024)
